According to ChEMBL document CHEMBL3351479, “Novel acylureidoindolin-2-one derivatives as dual Aurora B/FLT3 inhibitors for the treatment of acute myeloid leukemia” (Eur J Med Chem, 2014):

Key:
Cytochrome P450 3A4 = Cytochrome P450 3A4 (Homo sapiens, UniProt P08684); experiment: Inhibition of CYP3A4 (unknown origin) using Vivid OOMR substrate; type: ADME
[1] = Tmax in BALB/c mouse at 2 mg/kg, iv; type: ADME, organism-based; set-up: dose 2 mg/kg, route intravenous; conditions: in vivo
MOLM-13 [2] = experiment: Antitumor activity against human MOLM13 cells xenografted in BALB/c AnN.Cg-Foxnlnu/CrlNarl mouse assessed as reduction in tumor growth at 10 mg/kg, ip once daily for 16 days; type: functional; conditions: MOLM-13, ip, 384 h, route intraperitoneal
Mus musculus = experiment: Toxicity in BALB/c AnN.Cg-Foxnlnu/CrlNarl mouse xenografted with human MOLM13 cells assessed as body weight loss at 10 mg/kg, ip administered qd for 16 days; type: organism-based, MOLM-13; set-up: dose 10 mg/kg, route intraperitoneal; conditions: in vivo, 384 h
THP-1 = experiment: Cytotoxicity against human THP1 cells assessed as cell viability after 48 hrs by MTT assay; type: functional, cell-based; conditions: Homo sapiens, THP-1, 48 h
MV4-11 = experiment: Cytotoxicity against human MV4-11 cells assessed as cell viability after 48 hrs by MTT assay; type: functional, cell-based; conditions: Homo sapiens, MV4-11, 48 h
[3] = biological target: Mast/stem cell growth factor receptor Kit (Homo sapiens, UniProt P10721); experiment: Inhibition of c-Kit (unknown origin)
[4] = Cmax in BALB/c mouse at 2 mg/kg, iv; type: ADME, organism-based; set-up: dose 2 mg/kg, route intravenous; conditions: in vivo
[5] = AUC (0 to 24 hrs) in BALB/c mouse at 2 mg/kg, iv; type: ADME, organism-based; set-up: time < 24 hr, dose 2 mg/kg, route intravenous; conditions: plasma
[6] = biological target: Voltage-gated inwardly rectifying potassium channel KCNH2 (Homo sapiens, UniProt Q12809); experiment: Inhibition of human ERG channel after 3 hrs by fluorescence assay
[7] = biological target: Cytochrome P450 1A2 (Homo sapiens) (UniProt P05177); experiment: Inhibition of CYP1A2 (unknown origin) using 3-cyano-7-ethoxycoumarin substrate
MOLM-13 [8] = experiment: Cytotoxicity against human MOLM13 cells assessed as cell viability after 48 hrs by MTT assay; type: functional, cell-based; conditions: MOLM-13, 48 h
[9] = Half life in BALB/c mouse at 10 mg/kg, po; type: ADME, organism-based; set-up: dose 10 mg/kg, route oral; conditions: in vivo
Vero = experiment: Cytotoxicity against african green monkey Vero cells at 10 uM after 48 hrs by MTT assay; type: cell-based; conditions: chlorocebus sabaeus
[10] = Cytotoxicity against human HL60 cells assessed as cell viability after 48 hrs by MTT assay; type: functional, cell-based; conditions: HL-60, 48 h
Cytochrome P450 2C9 = Cytochrome P450 2C9 (Homo sapiens, UniProt P11712); experiment: Inhibition of CYP2C9 (unknown origin) using Vivid OOMR substrate; type: ADME
[11] = Cmax in BALB/c mouse at 10 mg/kg, po; type: ADME, organism-based; set-up: dose 10 mg/kg, route oral; conditions: in vivo
[12] = Therapeutic index, ratio of LD50 for BALB/c AnN.Cg-Foxnlnu/CrlNarl mouse to ED50 for antitumor activity against human MOLM13 cells xenografted in BALB/c AnN.Cg-Foxnlnu/CrlNarl mouse; type: cell-based, MOLM-13; conditions: in vivo, read-out: Ratio LD50/ED50
Cytochrome P450 2C19 = Cytochrome P450 2C19 (Homo sapiens, UniProt P33261); experiment: Inhibition of CYP2C19 (unknown origin) using 3-cyano-7-ethoxycoumarin substrate; type: ADME
[13] = Clearance in BALB/c mouse at 2 mg/kg, iv; type: ADME, organism-based; set-up: dose 2 mg/kg, route intravenous; conditions: in vivo
[14] = Ratio of solubility in PBS to solubility in DMSO; type: physicochemical
[15] = Permeability coefficient of the compound at pH 7.4 by PAMPA-GIT assay; type: ADME; conditions: read-out: Peff
[16] = AUC (0 to 24 hrs) in BALB/c mouse at 10 mg/kg, po; type: ADME, organism-based; set-up: time < 24 hr, dose 10 mg/kg, route oral; conditions: plasma
[17] = Oral bioavailability in BALB/c mouse at 10 mg/kg; type: ADME, organism-based; conditions: in vivo
[18] = Tmax in BALB/c mouse at 10 mg/kg, po; type: ADME, organism-based; set-up: dose 10 mg/kg, route oral; conditions: in vivo
[19] = biological target: Tyrosine-protein kinase Lck (Homo sapiens, UniProt P06239); experiment: Inhibition of Lck (unknown origin)
[20] = Toxicity in BALB/c AnN.Cg-Foxnlnu/CrlNarl mouse xenografted with human MOLM13 cells at 10 mg/kg, ip administered qd for 16 days; type: organism-based, MOLM-13; set-up: dose 10 mg/kg, route intraperitoneal; conditions: in vivo
Cytochrome P450 2D6 = Cytochrome P450 2D6 (Homo sapiens, UniProt P10635); experiment: Inhibition of CYP2D6 (unknown origin) using 3-cyano-7-ethoxycoumarin substrate; type: ADME
[21] = Half life in BALB/c mouse at 2 mg/kg, iv; type: ADME, organism-based; set-up: dose 2 mg/kg, route intravenous; conditions: in vivo
MOLM-13 [22] = experiment: Antitumor activity against human MOLM13 cells xenografted in BALB/cAnN.Cg-Foxnlnu/CrlNarl mouse assessed as reduction in tumor mass at 10 mg/kg, ip once daily for 16 days; type: functional; conditions: MOLM-13, ip, 384 h, route intraperitoneal
[23] = Volume of distribution at steady state in BALB/c mouse at 2 mg/kg, iv; type: ADME, organism-based; set-up: dose 2 mg/kg, route intravenous; conditions: in vivo, read-out: Vdss

Chain of Cytochrome P450 2D6 (P10635 whole entry): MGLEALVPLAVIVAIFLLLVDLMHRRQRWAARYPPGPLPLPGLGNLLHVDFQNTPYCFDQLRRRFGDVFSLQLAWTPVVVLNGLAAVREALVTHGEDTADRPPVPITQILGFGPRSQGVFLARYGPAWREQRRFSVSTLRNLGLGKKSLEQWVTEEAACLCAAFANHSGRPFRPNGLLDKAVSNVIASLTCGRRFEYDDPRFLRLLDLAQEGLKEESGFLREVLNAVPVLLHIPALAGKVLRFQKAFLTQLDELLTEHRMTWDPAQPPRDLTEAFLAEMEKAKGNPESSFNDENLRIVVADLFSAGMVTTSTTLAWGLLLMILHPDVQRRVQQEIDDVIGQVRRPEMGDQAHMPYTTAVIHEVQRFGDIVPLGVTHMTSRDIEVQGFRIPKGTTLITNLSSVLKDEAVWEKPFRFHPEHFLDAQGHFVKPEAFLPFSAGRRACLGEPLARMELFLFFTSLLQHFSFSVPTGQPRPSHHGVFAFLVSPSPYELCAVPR
Chain of Cytochrome P450 2C9 (P11712 whole entry): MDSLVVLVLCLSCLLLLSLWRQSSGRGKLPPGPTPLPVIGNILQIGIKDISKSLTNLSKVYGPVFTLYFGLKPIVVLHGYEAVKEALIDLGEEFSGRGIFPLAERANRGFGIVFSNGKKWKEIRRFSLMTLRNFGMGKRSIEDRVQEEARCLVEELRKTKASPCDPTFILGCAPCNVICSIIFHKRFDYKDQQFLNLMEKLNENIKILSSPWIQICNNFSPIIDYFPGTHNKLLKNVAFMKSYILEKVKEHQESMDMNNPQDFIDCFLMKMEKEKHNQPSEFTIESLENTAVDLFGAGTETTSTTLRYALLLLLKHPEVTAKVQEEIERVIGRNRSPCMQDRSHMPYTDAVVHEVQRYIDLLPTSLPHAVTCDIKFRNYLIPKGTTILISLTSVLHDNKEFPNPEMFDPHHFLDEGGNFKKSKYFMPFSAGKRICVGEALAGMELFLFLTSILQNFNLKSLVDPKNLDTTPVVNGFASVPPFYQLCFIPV
Chain of Voltage-gated inwardly rectifying potassium channel KCNH2 (Q12809 whole entry): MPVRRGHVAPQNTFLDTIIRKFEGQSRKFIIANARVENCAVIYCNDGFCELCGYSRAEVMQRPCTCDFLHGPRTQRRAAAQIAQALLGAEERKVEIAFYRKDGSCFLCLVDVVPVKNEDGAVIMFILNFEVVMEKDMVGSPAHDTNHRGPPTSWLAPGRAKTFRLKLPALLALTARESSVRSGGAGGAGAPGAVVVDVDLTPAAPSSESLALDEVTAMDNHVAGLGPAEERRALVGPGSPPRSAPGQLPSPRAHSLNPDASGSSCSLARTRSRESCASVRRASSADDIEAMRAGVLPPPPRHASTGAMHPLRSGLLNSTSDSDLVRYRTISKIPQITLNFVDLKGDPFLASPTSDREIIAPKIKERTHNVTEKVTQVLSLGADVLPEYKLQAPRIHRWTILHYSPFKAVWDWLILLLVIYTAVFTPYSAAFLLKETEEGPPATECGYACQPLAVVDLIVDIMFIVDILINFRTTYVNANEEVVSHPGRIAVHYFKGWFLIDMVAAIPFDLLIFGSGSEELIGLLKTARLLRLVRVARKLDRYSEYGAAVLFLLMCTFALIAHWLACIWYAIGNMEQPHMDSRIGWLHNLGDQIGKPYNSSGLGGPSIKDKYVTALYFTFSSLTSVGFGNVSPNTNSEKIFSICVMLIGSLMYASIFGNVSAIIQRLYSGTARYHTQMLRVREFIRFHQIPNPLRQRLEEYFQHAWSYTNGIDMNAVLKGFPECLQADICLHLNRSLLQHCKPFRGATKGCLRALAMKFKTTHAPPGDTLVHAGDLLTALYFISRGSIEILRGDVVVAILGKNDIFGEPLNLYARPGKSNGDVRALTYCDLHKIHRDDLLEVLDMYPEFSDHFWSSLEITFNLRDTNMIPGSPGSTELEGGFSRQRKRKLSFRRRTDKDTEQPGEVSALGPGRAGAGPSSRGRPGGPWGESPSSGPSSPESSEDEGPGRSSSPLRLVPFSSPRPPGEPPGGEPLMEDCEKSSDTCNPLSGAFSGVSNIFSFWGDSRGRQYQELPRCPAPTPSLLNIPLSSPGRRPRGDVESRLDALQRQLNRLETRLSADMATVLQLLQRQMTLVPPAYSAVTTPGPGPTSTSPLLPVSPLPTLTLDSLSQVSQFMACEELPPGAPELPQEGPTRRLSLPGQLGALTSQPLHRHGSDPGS
Chain of Cytochrome P450 3A4 (P08684 whole entry): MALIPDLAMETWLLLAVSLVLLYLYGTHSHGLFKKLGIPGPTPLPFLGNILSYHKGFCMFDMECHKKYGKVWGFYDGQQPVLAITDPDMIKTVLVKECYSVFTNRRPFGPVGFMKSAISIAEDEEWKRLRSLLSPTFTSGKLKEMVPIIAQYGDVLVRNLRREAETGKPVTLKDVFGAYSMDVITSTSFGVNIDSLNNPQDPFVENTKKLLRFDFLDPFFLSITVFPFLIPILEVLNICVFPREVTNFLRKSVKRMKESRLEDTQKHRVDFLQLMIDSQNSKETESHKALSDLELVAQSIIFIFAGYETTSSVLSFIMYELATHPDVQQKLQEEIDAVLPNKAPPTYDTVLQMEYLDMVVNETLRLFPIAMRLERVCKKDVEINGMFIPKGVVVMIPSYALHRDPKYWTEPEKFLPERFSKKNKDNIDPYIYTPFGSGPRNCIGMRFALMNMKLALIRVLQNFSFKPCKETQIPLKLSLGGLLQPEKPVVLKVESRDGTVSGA
Chain of Mast/stem cell growth factor receptor Kit (P10721 whole entry): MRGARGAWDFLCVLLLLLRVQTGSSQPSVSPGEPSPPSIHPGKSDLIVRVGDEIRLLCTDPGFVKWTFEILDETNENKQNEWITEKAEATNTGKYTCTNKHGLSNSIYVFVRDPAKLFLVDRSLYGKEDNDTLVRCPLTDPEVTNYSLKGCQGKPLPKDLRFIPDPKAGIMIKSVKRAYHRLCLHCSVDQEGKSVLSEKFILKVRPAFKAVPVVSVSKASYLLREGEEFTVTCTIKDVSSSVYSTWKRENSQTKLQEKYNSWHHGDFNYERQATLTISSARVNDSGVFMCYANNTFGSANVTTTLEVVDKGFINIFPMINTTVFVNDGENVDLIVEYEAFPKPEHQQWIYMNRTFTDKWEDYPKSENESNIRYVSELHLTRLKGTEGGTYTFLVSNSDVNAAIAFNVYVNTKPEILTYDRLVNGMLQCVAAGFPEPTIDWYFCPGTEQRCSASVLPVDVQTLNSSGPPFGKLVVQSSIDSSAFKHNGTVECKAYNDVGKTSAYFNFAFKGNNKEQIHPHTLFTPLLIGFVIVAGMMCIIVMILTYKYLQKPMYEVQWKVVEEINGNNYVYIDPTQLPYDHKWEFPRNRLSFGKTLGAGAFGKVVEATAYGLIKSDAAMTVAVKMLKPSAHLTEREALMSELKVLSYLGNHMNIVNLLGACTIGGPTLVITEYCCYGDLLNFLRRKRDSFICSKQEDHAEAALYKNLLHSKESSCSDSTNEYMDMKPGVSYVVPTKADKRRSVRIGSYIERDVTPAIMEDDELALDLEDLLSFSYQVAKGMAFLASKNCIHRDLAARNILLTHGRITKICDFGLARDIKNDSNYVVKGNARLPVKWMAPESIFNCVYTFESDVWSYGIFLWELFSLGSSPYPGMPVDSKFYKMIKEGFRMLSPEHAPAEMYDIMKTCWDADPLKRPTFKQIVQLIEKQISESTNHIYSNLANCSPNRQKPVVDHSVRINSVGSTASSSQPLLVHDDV
Chain of Tyrosine-protein kinase Lck (P06239 whole entry): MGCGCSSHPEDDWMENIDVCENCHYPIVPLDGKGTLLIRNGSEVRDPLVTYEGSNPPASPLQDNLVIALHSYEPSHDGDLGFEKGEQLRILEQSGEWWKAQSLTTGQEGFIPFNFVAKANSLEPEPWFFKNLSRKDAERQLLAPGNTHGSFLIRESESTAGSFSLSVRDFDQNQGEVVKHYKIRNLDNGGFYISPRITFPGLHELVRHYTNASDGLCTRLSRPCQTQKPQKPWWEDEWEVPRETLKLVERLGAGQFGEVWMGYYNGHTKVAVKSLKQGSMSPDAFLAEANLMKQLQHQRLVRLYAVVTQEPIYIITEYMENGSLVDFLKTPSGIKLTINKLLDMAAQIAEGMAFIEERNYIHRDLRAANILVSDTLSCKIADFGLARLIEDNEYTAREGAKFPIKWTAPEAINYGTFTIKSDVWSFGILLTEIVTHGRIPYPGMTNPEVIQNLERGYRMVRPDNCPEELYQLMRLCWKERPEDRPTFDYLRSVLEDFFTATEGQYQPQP
Chain of Cytochrome P450 2C19 (P33261 whole entry): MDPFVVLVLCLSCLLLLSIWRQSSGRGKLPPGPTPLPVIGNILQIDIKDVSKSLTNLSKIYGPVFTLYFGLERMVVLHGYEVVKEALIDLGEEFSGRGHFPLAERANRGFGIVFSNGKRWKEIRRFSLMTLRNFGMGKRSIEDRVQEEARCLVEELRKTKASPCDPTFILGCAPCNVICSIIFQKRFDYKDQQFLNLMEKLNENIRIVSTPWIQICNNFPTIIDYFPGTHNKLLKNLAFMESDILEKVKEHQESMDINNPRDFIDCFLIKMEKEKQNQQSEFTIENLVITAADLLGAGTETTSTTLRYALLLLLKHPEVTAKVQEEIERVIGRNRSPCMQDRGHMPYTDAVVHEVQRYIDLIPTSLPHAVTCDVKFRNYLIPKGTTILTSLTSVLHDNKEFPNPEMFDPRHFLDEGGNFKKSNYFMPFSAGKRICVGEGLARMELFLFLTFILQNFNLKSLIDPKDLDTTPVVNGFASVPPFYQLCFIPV

Compound: COc1ccc(C(=O)NC(=O)Nc2ccc3c(c2)NC(=O)/C3=C\c2[nH]c(C)c(C(=O)NCCN3CCCC3)c2C)c(F)c1
- IC50 (Cytochrome P450 3A4): > 10000 nM
- Tmax [1]: 6 min
- inhibition in vivo at 10 mg/kg (MOLM-13 [2]): > 90%
- Activity (Mus musculus): Non-toxic
- IC50 (THP-1): 48.9 nM
- IC50 (MV4-11): 2.4 nM
- IC50 [3]: 14 nM
- Cmax [4]: 654 ng/mL
- AUC(0-t) at 24 h [5]: 1960 ng·h/mL
- IC50 [6]: 9670 nM
- IC50 [7]: > 10000 nM
- IC50 (MOLM-13 [8]): 0.7 nM
- half-life [9]: 8.6 h
- Activity (Vero): Non-toxic
- IC50 [10]: 2.8 nM
- IC50 (Cytochrome P450 2C9): > 10000 nM
- Cmax [11]: 20.9 ng/mL
- selectivity ratio [12]: > 10
- IC50 (Cytochrome P450 2C19): > 10000 nM
- clearance [13]: 8.33 mL/min/kg
- Ratio [14]: 0.36
- Papp [15]: 1.78 ×10⁻⁶ cm/s
- AUC(0-t) at 24 h [16]: 252 ng·h/mL
- bioavailability [17]: 2.6%
- Tmax [18]: 1.7 h
- IC50 [19]: 2.3 nM
- LD50 at 384 h [20]: > 20 mg/kg
- IC50 (Cytochrome P450 2D6): > 10000 nM
- half-life [21]: 27.6 h
- inhibition in vivo at 10 mg/kg (MOLM-13 [22]): 95%
- Vd [23]: 22.2 L/kg
